Active and inactive are the calls of the source. Cut-off read from the data, not from the text of the source: actives have a measured IC50 and inactives only a lower limit.

In the assay the target is Envelope glycoprotein gp160 (Human immunodeficiency virus 1, UniProt Q6QLK5). Nature of the assay: inhibitors of HIV fusion peptide binding, primary screen, biochemical, uHTS, fluorescence dequenching (AID 1986).
Chain of Envelope glycoprotein gp160 (Q6QLK5 whole entry, the tested form may be a part): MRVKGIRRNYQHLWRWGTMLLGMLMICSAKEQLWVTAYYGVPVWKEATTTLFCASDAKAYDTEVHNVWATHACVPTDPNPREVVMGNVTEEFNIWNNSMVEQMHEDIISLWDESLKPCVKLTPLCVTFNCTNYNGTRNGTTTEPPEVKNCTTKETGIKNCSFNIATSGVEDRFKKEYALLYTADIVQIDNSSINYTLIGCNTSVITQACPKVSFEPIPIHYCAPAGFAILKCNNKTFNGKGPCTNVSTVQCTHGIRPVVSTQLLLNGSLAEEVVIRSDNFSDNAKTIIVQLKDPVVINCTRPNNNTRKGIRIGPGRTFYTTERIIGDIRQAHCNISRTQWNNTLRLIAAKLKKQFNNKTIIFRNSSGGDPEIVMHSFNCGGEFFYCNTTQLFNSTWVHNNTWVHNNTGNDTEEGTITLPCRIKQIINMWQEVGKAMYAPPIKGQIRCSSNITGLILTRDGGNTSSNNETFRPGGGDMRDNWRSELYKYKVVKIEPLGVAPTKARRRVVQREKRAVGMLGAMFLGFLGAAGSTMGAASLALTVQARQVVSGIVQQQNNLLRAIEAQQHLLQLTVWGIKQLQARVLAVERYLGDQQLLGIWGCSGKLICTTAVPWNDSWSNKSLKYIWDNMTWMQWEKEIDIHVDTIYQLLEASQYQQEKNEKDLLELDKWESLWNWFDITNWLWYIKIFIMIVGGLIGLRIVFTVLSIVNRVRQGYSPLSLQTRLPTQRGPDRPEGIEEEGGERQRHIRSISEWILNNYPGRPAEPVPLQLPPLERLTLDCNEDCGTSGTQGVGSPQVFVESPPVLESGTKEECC
As a reminder, the IC50 is the concentration at which inhibition is half-maximal. In the case of `COc1ccccc1N1N=C(C(=O)c2ccccc2)C2C(=O)N(c3ccc(Br)cc3)C(=O)C21` (stereo not drawn), the IC50 was 14.6 µM (active).
In the case of `Cc1ccc(NS(=O)(=O)c2ccc(N/N=C/c3ccccc3OCC(=O)O)c([N+](=O)[O-])c2)c(C)c1`, the IC50 is 13.8 µM (active).
Regarding `COc1cc(/C=C2\S/C(=N\c3ccccc3)N(CCc3c[nH]c4ccccc34)C2=O)ccc1OC(C)C(=O)O` (stereo not drawn), the IC50 was 16.9 µM (active).

Values taken from ChEMBL document CHEMBL1201862, “PubChem BioAssay data set” (2004).
